Patent EP3212201B1, “NUCLEOSIDE KINASE INHIBITORS” (BCI Pharma, priority 2014, dated 2016)

Columns and labels:
Test in all cases: FRET-based coupled-enzyme protein kinase inhibition assay
Format in all cases: biochemical
Details in all cases: compound at 10 µM, 1% DMSO
FLT3 = target: T1, FLT3 (Homo sapiens, UniProt P36888)
T1 sequence (P36888 27-993): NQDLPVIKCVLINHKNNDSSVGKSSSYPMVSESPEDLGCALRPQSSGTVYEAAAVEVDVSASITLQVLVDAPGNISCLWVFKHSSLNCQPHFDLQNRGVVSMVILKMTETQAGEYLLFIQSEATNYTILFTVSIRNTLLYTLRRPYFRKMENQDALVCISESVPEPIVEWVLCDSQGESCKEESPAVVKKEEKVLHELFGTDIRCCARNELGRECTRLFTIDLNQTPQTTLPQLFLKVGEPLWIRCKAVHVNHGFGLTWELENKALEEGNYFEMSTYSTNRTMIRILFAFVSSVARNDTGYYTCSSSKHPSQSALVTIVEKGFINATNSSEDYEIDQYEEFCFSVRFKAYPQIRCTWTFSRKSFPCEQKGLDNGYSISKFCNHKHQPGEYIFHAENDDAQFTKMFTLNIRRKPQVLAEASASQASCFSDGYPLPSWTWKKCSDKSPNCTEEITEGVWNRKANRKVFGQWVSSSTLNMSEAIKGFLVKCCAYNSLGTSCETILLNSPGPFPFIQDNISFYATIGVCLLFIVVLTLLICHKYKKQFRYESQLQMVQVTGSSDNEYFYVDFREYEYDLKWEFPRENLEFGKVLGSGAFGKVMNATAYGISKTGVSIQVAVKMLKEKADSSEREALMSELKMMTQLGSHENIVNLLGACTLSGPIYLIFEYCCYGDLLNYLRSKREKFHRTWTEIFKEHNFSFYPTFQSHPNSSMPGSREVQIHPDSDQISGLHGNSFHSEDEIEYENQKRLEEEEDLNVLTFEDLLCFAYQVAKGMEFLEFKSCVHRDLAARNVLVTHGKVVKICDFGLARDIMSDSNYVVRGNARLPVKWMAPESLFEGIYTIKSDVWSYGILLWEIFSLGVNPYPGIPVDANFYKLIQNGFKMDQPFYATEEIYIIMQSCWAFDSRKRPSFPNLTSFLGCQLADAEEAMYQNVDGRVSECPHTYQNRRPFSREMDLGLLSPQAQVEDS
Protocol: (§1) A biochemical assay was then performed in order to measure the protein kinase inhibition. It employed a fluorescence-based coupled-enzyme format and was based on the differential sensitivity of phosphorylated and non-phosphorylated peptides to proteolytic cleavage.
(§2) Peptide substrates were labeled with two fluorophores. The two fluorohores used were coumarin (donor) and fluorecein (acceptor), and each of the peptides was bearing one at one end, and one at the other end, which made up fluorescence resonance energy transfer (FRET) pair peptides.
(§3) In a primary reaction, the FRET-peptides were submitted to a phosphorylation reaction, in which one of adenosine triphosphate (ATP)'s phosphate groups was transferred to the peptide in the presence of kinase. When kinase inhibition takes place, the peptide will not be phosphorylated. In a secondary reaction, both the phosphorylated FRET-peptides and the non-phosphorylated FRET-peptides were reacted with a development reagent. It has been observed that non-phosphorylated FRET-peptides were cleaved, whereas the phosphorylted FRET-peptide remained intact.
(§4) Cleavage disrupts FRET between the donor (i.e., coumarin) and acceptor (i.e., fluorescein) fluorophores on the FRET-peptide, whereas uncleaved, phosphorylated FRET-peptides maintain FRET. A ratiometric method, which calculates the Emission Ratio of donor emission to acceptor emission after excitation of the donor fluorophore at 400 nm, is used to quantitate reaction progress, as shown in the equation below. [formula]
(§5) A significant benefit of this ratiometric method for quantitating reaction progress is the elimination of well-to-well variations in FRET-peptide concentration and signal intensities. As a result, the assay yields very high Z'factor values (>0.7) at a low percent phosphorylation. Both cleaved and uncleaved FRET-peptides contribute to the fluorescence signals and therefore to the Emission Ratio. The extent of phosphorylation of the FRET-peptide can be calculated from the Emission Ratio. The Emission Ratio will remain low if the FRET-peptide is phosphorylated (i.e., no kinase inhibition) and will be high if the FRET-peptide is non-phosphorylated (i.e., kinase inhibition).
(§6) The Test Compounds were screened in 1% DMSO. For 10 point titrations, 3-fold serial dilutions were prepared from the starting concentration.
(§7) All Peptide/Kinase Mixtures were diluted to a 2X working concentration in the appropriate Kinase Buffer (50 mM HEPES pH 7.5, 0.01% BRIJ-35, 10 mM MgCl2, 1 mM […]).
(§8) All ATP Solutions were diluted to a 4X working concentration in Kinase Buffer. ATP Km apparent was previously determined using another assay.
(§9) 2.5 µL - 4X Test Compound or 100 nL 100X plus 2.4 µL kinase buffer were mixed together with 2. 5 µL - 2X Peptide/Kinase Mixture and 3. 2.5 µL - 4X ATP Solution.
(§10) The solution was plate-shaked for 30 seconds, then incubated 60 minutes at room temperature for kinase reaction. 5 µL of Development Reagent Solution were then added, followed by a 30-second plate shake and a 60-minute Development Reaction incubation at room temperature. The results were read on a fluorescence plate reader and the data was analyzed.
(§11) The compounds that show the highest Emission Ratio are the ones that also show the highest protein kinase inhibition properties.

INSR = INSR (Homo sapiens, UniProt P06213)
Protocol: as §1, §2, §3, §4, §5, §6, §7, §8, §9, §10, §11

KDR (VEGFR2) = KDR (VEGFR2) (Homo sapiens, UniProt P35968)
Sequence of KDR (VEGFR2) (P35968 20-1356, species assumed): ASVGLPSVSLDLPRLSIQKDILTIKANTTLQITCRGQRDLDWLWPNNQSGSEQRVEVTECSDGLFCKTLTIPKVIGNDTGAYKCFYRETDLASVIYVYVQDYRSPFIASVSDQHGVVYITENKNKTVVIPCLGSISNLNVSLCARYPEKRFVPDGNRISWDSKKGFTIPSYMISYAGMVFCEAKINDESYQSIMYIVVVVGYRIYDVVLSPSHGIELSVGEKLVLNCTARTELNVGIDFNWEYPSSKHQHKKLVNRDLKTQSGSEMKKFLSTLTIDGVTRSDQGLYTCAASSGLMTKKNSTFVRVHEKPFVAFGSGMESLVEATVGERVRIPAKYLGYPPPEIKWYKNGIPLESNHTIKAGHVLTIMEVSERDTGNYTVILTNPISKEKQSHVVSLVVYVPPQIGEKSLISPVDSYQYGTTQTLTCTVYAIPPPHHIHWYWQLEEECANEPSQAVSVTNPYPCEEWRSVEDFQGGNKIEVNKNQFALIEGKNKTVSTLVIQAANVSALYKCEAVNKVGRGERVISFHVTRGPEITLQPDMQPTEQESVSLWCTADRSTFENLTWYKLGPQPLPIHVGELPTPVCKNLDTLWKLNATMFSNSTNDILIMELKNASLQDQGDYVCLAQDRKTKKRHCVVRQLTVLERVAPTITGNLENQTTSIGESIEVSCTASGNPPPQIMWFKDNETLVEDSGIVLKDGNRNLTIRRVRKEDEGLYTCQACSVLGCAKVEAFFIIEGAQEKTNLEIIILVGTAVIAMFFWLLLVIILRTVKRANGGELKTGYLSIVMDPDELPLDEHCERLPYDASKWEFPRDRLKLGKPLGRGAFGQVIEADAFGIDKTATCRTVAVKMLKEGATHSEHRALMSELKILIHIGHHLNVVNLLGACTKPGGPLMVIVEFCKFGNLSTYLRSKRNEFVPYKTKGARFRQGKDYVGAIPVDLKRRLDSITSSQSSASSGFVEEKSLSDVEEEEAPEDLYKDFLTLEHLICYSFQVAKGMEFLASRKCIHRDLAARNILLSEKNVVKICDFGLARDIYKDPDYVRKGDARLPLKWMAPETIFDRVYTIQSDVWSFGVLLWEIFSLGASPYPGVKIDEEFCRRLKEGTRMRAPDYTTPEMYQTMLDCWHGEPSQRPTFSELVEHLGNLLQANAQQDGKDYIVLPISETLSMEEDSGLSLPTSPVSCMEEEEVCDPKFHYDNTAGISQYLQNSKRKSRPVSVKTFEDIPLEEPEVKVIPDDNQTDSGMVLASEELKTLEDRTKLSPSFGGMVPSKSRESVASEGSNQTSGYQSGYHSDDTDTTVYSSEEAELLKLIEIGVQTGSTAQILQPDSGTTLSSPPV
Protocol: as §1, §2, §3, §4, §5, §6, §7, §8, §9, §10, §11

PRKACA (PKA) = PRKACA (PKA) (Homo sapiens, UniProt P17612)
Protocol: as §1, §2, §3, §4, §5, §6, §7, §8, §9, §10, §11

ROCK1 = ROCK1 (Homo sapiens, UniProt Q13464)
Sequence of ROCK1 (Q13464 whole entry, species assumed): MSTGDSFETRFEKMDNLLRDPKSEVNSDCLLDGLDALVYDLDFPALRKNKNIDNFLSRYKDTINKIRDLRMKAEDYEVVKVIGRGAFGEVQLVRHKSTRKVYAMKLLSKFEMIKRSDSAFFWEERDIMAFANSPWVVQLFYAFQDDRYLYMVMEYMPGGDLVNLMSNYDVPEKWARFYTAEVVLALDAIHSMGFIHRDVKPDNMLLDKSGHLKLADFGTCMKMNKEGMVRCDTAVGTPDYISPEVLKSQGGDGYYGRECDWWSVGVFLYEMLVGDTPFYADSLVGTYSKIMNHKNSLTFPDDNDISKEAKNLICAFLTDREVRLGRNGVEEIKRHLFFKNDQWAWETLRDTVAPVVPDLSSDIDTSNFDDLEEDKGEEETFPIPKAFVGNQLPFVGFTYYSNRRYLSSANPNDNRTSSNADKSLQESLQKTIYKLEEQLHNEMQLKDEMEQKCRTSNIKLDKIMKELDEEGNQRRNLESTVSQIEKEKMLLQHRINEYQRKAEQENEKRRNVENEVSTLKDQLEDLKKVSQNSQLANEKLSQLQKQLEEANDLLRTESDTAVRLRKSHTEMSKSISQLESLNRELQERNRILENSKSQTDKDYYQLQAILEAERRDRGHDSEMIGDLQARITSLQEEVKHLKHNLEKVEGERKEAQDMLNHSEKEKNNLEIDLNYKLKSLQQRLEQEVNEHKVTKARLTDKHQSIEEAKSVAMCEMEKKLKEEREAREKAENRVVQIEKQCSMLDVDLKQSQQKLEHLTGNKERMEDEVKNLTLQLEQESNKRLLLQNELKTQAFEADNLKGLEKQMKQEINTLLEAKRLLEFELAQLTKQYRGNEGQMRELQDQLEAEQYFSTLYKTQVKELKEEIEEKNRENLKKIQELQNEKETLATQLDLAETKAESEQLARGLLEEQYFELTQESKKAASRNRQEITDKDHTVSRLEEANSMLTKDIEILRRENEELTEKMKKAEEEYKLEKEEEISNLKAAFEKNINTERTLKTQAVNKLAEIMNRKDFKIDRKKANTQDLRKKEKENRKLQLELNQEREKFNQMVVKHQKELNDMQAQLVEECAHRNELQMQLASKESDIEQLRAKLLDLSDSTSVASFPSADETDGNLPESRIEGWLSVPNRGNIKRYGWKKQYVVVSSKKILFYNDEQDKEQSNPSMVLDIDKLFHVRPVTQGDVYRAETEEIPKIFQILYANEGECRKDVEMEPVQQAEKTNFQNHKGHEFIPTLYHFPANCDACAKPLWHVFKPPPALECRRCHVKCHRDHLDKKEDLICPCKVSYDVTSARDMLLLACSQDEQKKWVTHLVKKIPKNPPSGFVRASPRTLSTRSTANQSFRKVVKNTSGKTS
Protocol: as §1, §2, §3, §4, §5, §6, §7, §8, §9, §10, §11

RPS6KA3 (RSK2) = RPS6KA3 (RSK2) (Homo sapiens, UniProt P51812)
Sequence of RPS6KA3 (RSK2) (P51812 whole entry, species assumed): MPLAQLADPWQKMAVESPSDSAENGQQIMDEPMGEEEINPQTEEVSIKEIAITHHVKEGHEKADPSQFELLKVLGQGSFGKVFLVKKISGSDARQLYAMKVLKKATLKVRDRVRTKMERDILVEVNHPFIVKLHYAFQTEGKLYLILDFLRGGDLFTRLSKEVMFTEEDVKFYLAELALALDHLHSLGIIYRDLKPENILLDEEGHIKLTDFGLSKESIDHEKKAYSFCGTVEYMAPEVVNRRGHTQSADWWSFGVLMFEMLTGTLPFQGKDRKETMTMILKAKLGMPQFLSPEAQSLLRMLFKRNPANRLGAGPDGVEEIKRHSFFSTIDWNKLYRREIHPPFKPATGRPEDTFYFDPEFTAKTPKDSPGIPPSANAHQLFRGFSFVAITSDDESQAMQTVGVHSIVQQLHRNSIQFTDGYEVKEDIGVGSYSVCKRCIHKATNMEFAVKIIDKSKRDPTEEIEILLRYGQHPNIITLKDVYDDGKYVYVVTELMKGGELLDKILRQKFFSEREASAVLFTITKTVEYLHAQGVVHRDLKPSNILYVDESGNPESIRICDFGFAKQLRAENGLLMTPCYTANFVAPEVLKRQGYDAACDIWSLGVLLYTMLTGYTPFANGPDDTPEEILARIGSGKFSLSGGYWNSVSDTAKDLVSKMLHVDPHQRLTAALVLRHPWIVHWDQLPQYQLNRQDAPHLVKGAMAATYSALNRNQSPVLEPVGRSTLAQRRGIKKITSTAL
Protocol: as §1, §2, §3, §4, §5, §6, §7, §8, §9, §10, §11

PRKCB1 (PKC beta I) = PRKCB1 (PKC beta I) (Homo sapiens, UniProt P05771)
Sequence of PRKCB1 (PKC beta I) (P05771 whole entry, species assumed): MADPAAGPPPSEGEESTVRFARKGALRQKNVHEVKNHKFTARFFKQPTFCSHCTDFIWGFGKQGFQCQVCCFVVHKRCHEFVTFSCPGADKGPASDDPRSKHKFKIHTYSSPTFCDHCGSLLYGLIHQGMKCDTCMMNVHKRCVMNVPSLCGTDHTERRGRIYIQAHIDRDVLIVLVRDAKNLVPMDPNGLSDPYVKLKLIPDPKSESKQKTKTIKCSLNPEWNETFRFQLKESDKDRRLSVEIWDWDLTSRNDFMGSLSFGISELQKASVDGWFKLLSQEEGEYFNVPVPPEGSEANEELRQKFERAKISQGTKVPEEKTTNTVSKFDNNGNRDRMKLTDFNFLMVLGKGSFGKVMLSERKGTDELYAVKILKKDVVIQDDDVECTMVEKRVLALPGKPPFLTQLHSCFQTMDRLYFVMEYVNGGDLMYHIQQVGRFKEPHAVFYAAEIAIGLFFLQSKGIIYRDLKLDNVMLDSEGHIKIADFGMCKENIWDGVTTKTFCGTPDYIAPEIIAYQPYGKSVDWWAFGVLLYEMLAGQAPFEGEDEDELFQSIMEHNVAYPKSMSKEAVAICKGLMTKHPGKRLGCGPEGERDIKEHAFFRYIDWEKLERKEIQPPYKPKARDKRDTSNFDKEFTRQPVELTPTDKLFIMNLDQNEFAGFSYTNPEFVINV
Protocol: as §1, §2, §3, §4, §5, §6, §7, §8
The Development Reagent was diluted in Development Buffer. For 5 mL 10X Novel PKC Lipid Mix, 10X Novel PKC Lipid Mix being composed of 2 mg/ml Phosphatidyl Serine, 0.2 mg/ml DAG in 20 mM HEPES, pH 7.4, 0.3% CHAPS, 10 mg of Phosphatidyl Serine (Avanti Polar Lipids Part# 8400032C or 840039C) and 1 mg DAG (Avanti Polar Lipids Part# 800811C) were added to a glass tube.
The chloroform was removed from the lipid mixture by evaporating to a clear, thin film under a stream of nitrogen. Continuous rotation of the tube, at an angle to ensure maximum surface area of the lipid solution, has promoted the thinnest film. 5mL resuspension buffer, 20 mM HEPES, 0.3% CHAPS, pH 7.4, were added to the dried lipid mix, which was then gently heated to 50-60°C for 1-2 minutes and vortexed in short intervals until the lipids are dissolved to a clear or slightly hazy solution. The lipids were typically in solution after 2-3 heat-vortex cycles. The solution was cooled to room temperature, aliquoted into single use volumes and stored at -20 °C.
as §9
The solution was plate-shaked for 30 seconds, then incubated 60 minutes at room temperature for kinase reaction. […]

Row | SMILES | inhibition at 10 µM (FLT3) [%] | inhibition at 10 µM (INSR) [%] | inhibition at 10 µM (KDR (VEGFR2)) [%] | inhibition at 10 µM (PRKACA (PKA)) [%] | inhibition at 10 µM (ROCK1) [%] | inhibition at 10 µM (RPS6KA3 (RSK2)) [%] | inhibition at 10 µM (PRKCB1 (PKC beta I)) [%]
1 | CC(C)N1CCC(NC(=O)OC[C@H]2O[C@@H](n3cnc4c(N)ncnc43)[C@H](O)[C@@H]2O)CC1 [Compound C19] | 23 | 0 | -10 | 4 | 2 | 1 | 4
2 | Nc1ncnc2c1ncn2[C@@H]1O[C@H](COC(=O)N2CCN(Cc3ccccc3)CC2CO)[C@@H](O)[C@H]1O (some centres unmarked) [Compound C13] | 12 | -3 | -3 | -1 | -7 | 3 | 7
3 | C[C@@H](NC(=O)OC[C@H]1O[C@@H](n2cnc3c(N)ncnc32)[C@H](O)[C@@H]1O)c1ccc(Cl)cc1 [Compound C4] | 19 | 5 | 4 | 20 | -7 | 9 | -1
4 | Nc1ncnc2c1ncn2[C@@H]1O[C@H](COC(=O)NC[C@H](O)CO)[C@@H](O)[C@H]1O [Compound C8] | 12 | 2 | 0 | 43 | 2 | 19 | -11
5 | Nc1ncnc2c1ncn2[C@@H]1O[C@H](COC(=O)N[C@@H]2CCN(Cc3ccccc3)C2)[C@@H](O)[C@H]1O [Compound C10] | 13 | 3 | 8 | 10 | -2 | 8 | 5
6 | Nc1ncnc2c1ncn2[C@@H]1O[C@H](COC(=O)N2CCN(C(=O)N3CCOCC3)CC2)[C@@H](O)[C@H]1O [Compound C89] | 10 | 0 | -6 | -1 | -15 | 0 | -6
7 | Nc1ncnc2c1ncn2[C@@H]1O[C@H](COC(=O)N2CCS(=O)(=O)CC2)[C@@H](O)[C@H]1O [Compound C100] | 9 | -2 | -3 | -3 | -6 | 1 | 1
8 | Nc1ncnc2c1ncn2[C@@H]1O[C@H](COC(=O)N2CCN(CCc3ccccc3)CC2)[C@@H](O)[C@H]1O [Compound C26] | 18 | 2 | -3 | -1 | -12 | 0 | 0
9 | CN(C)CCNC(=O)OC[C@H]1O[C@@H](n2cnc3c(N)ncnc32)[C@H](O)[C@@H]1O [Compound C85] | 12 | 3 | 2 | -2 | -7 | 7 | -1
10 | CS(=O)(=O)N1CC2(CCN(C(=O)OC[C@H]3O[C@@H](n4cnc5c(N)ncnc54)[C@H](O)[C@@H]3O)CC2)c2ccccc21 [Compound C98] | 13 | -2 | 8 | -2 | -8 | 4 | -1
11 | N#CCCN1CCN(C(=O)OC[C@H]2O[C@@H](n3cnc4c(N)ncnc43)[C@H](O)[C@@H]2O)CC1 [Compound C70] | 7 | -2 | -12 | -4 | -3 | 2 | -5
